Experiments:
EGFR wild type = target: T1, EGFR wild type (Homo sapiens, UniProt P00533); experiment: Wild-type EGFR enzyme HTRF inhibition assay; format: biochemical; conditions: 25 μM ATP, read-out: EGFR WT IC50
T1 construct: purchased Life technology (Madison, Wis.)
Method in brief: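 HTRF with 0.05 nM wild-type EGFR, 1 μM biotin-TK1 peptide, 25 μM ATP, 60 min at 23° C; detected with Eu-anti-TK1 antibody 2 nM and XL665 62.5 nM, 60 min at 23° C. Ten 3-fold doses, 300 nM to 0.015 nM final; IC50 by four-parameter fit of % inhibition.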

EGFR d746-750/T790M = target: T2, EGFR d746-750/T790M (Homo sapiens, UniProt P00533, DEL746-750/T790M); experiment: EGFR d746-750/T790M enzyme HTRF inhibition assay; format: biochemical; conditions: 40 μM ATP
T2 construct: purchased Carna Biosciences (Japan)
T2 sequence (P00533 with tags, fused parts or gaps DEL746-750/T790M limits assumed): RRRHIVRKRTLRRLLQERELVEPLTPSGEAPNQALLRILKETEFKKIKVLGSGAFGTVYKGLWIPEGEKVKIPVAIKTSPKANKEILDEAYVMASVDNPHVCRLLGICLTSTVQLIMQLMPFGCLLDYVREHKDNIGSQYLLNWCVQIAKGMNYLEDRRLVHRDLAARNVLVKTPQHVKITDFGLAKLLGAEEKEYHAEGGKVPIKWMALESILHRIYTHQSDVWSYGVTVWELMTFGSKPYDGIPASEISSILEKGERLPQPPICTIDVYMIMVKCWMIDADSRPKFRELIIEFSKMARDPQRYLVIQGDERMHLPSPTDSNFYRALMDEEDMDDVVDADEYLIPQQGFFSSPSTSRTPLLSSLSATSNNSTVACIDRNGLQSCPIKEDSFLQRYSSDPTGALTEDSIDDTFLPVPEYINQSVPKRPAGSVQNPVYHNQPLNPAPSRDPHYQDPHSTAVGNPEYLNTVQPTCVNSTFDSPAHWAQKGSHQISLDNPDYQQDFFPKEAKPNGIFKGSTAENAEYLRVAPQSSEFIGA
Method in brief: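 0.025 nM enzyme with 1 μM biotin-TK1 peptide and 40 μM ATP, 60 min at 23° C; compound tested at 10 doses, 300 nM to 0.015 nM final. HTRF read (Eu-anti-TK1 antibody 2 nM, XL665 62.5 nM, 60 min at 23° C); IC50 from four-parameter fit of % inhibition.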

T1 sequence (P00533 25-1210): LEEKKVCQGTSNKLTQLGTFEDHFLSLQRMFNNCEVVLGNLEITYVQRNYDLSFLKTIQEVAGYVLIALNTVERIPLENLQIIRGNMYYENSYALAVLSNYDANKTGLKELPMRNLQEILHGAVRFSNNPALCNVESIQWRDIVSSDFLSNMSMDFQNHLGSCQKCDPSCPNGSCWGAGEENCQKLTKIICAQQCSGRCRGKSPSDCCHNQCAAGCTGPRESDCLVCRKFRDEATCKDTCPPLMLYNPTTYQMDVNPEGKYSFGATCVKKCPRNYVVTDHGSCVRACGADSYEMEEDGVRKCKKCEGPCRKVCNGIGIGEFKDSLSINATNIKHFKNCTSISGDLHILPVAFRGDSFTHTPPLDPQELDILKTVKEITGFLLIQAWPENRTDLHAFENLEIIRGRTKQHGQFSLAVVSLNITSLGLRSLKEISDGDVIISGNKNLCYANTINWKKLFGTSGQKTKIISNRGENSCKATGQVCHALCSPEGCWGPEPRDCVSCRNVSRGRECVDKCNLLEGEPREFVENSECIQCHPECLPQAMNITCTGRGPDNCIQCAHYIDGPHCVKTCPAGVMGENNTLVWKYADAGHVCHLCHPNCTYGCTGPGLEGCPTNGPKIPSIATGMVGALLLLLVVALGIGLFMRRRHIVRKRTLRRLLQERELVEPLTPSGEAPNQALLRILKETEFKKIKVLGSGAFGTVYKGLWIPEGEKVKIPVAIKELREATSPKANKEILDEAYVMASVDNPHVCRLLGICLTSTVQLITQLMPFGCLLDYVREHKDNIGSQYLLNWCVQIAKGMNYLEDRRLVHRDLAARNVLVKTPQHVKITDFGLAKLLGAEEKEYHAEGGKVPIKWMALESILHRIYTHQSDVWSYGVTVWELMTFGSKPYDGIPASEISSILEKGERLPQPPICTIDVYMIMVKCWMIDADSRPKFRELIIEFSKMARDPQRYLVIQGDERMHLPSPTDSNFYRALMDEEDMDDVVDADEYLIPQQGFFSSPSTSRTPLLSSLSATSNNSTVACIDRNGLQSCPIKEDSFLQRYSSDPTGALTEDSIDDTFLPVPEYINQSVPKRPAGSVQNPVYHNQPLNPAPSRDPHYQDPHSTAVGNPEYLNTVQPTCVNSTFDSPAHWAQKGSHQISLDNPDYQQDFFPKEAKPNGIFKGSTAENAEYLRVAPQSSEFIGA

IC50 (EGFR wild type): 2.6 nM
IC50 (EGFR d746-750/T790M): 0.4 nM
Structure (SMILES): C=CC(=O)Nc1cc(Nc2ncc(F)c(-c3c4n(c5cc(F)ccc35)CCOC4)n2)c(OC)cc1N(C)CCN(C)C [Embodiment 33, N-(2-((2-(Dimethylamino)ethyl)(methyl)amino)-5-((5-fluoro-4-(7-fluoro-3,4-dihydro-1H-[1,4]oxazino[4,3-a]indol-10-yl)pyrimidin-2-yl)amino)-4-methoxyphenyl)acrylamide]

Source: patent US10093656B2, “Fused-ring or tricyclic aryl pyrimidine compound used as kinase inhibitor” (NANJING SANHOME PHARMACEUTICAL CO., LTD, priority 2015, dated 2018)
